Source: ChEMBL document CHEMBL1201862, “PubChem BioAssay data set” (2004)
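Grown in 96-well plates, cells were treated for 48 hours with each compound at five concentrations. Insufficient inhibition: endpoint recorded as highest concentration tested. GI50 is the concentration that inhibits growth by half.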 Activity calls are given as the source filed them. Rule as the data show it: active = GI50 up to about 1.1 µM and inactive = higher.

How the values were obtained:
Assay in all cases: inhibition of tumour cell growth, NCI panel, 48 h
[1] = system: A498
[2] = system: CCRF-CEM
[3] = system: COLO 205
[4] = system: HOP-62
[5] = system: HT-29
[6] = system: KM12
[7] = system: LOX IMVI
[8] = system: MCF7
[9] = system: NCI-H226
[10] = system: NCI-H23
[11] = system: NCI/ADR-RES
[12] = system: OVCAR-3
[13] = system: OVCAR-5
[14] = system: SF-539
[15] = system: SK-MEL-2
[16] = system: SK-MEL-5
[17] = system: SW-620
[18] = system: T47D
[19] = system: UACC-62
[20] = system: UO-31

SMILES	GI50 [1]	GI50 [2]	GI50 [3]	GI50 [4]	GI50 [5]	GI50 [6]	GI50 [7]	GI50 [8]	GI50 [9]	GI50 [10]	GI50 [11]	GI50 [12]	GI50 [13]	GI50 [14]	GI50 [15]	GI50 [16]	GI50 [17]	GI50 [18]	GI50 [19]	GI50 [20]
O=C(NCP(=O)(O)O)c1cccnc1 [(NICOTINAMIDOMETHYL)PHOSPHONIC ACID]	> 100 µM (inactive)	> 100 µM (inactive)	> 100 µM (inactive)	> 100 µM (inactive)	> 100 µM (inactive)	> 100 µM (inactive)	> 100 µM (inactive)	> 100 µM (inactive)	> 100 µM (inactive)	> 100 µM (inactive)	> 100 µM (inactive)	> 100 µM (inactive)	> 100 µM (inactive)	> 100 µM (inactive)	> 100 µM (inactive)	> 100 µM (inactive)	> 100 µM (inactive)	> 100 µM (inactive)	> 100 µM (inactive)	> 100 µM (inactive)
COC(=O)c1ccccc1C1CN=NC12Cc1ccc(C)c(C)c1C2=O (stereo not given)	> 100 µM (inactive)	34.3 µM (inactive)	53.7 µM (inactive)	> 100 µM (inactive)	27.2 µM (inactive)	29.2 µM (inactive)	14.6 µM (inactive)	35.6 µM (inactive)	> 100 µM (inactive)	19.1 µM (inactive)	21.9 µM (inactive)	> 100 µM (inactive)	> 100 µM (inactive)	> 100 µM (inactive)	> 100 µM (inactive)	21.6 µM (inactive)	> 100 µM (inactive)	20.5 µM (inactive)	74 µM (inactive)	93.8 µM (inactive)
Oc1cccc2c(Br)ccnc12	7.82 µM (inactive)	0.38 µM (active)	11.2 µM (inactive)	8.73 µM (inactive)	5.4 µM (inactive)	5.19 µM (inactive)	0.713 µM (active)	4.43 µM (inactive)	7.1 µM (inactive)	3.94 µM (inactive)	2.08 µM (inactive)	0.697 µM (active)	6.08 µM (inactive)	3.63 µM (inactive)	11.4 µM (inactive)	2.74 µM (inactive)	3.51 µM (inactive)	3.17 µM (inactive)	1.47 µM (inactive)	2.84 µM (inactive)
NC1=CN(Cc2ccccc2)C2=N/C(=C\c3ccccc3O)C(=O)N12	> 100 µM (inactive)	81.8 µM (inactive)	> 100 µM (inactive)	> 100 µM (inactive)	> 100 µM (inactive)	> 100 µM (inactive)	> 100 µM (inactive)	> 100 µM (inactive)	> 100 µM (inactive)	> 100 µM (inactive)	> 100 µM (inactive)	> 100 µM (inactive)	> 100 µM (inactive)	> 100 µM (inactive)	> 100 µM (inactive)	90.8 µM (inactive)	> 100 µM (inactive)	94.4 µM (inactive)	> 100 µM (inactive)	70.3 µM (inactive)
CN(C)CCCNc1ccnc2cc([N+](=O)[O-])ccc12	17.2 µM (inactive)	> 100 µM (inactive)	2.65 µM (inactive)	16 µM (inactive)	2.68 µM (inactive)	10.2 µM (inactive)	11.4 µM (inactive)	4.47 µM (inactive)	14.9 µM (inactive)	11.7 µM (inactive)	20 µM (inactive)	5.11 µM (inactive)	20.7 µM (inactive)	16.3 µM (inactive)	14.5 µM (inactive)	11.9 µM (inactive)	7.45 µM (inactive)	5.98 µM (inactive)	18.8 µM (inactive)	16.9 µM (inactive)
O=C(O)C1Cc2c([nH]c3ccccc23)C(CCCCO)N1 (stereo not given)	> 100 µM (inactive)	> 100 µM (inactive)	> 100 µM (inactive)	> 100 µM (inactive)	> 100 µM (inactive)	> 100 µM (inactive)	> 100 µM (inactive)	> 100 µM (inactive)	> 100 µM (inactive)	> 100 µM (inactive)	> 100 µM (inactive)	> 100 µM (inactive)	> 100 µM (inactive)	> 100 µM (inactive)	> 100 µM (inactive)	> 100 µM (inactive)	> 100 µM (inactive)	> 100 µM (inactive)	> 100 µM (inactive)	> 100 µM (inactive)
O=C(O)CCC(=O)c1ccc2ccc3cccc4ccc1c2c34	67.5 µM (inactive)	45.3 µM (inactive)	44.9 µM (inactive)	84.5 µM (inactive)	63.8 µM (inactive)	55.2 µM (inactive)	71.8 µM (inactive)	54.3 µM (inactive)	49 µM (inactive)	> 100 µM (inactive)	96.4 µM (inactive)	53.7 µM (inactive)	> 100 µM (inactive)	27.7 µM (inactive)	> 100 µM (inactive)	58.6 µM (inactive)	59.2 µM (inactive)	83 µM (inactive)	> 100 µM (inactive)	94.6 µM (inactive)
CN(C)[C@@H]1C(O)=C(C(=O)NCNc2nc3[nH]nnc3c(=O)[nH]2)C(=O)[C@@]2(O)C(O)=C3C(=O)c4c(O)cccc4[C@@](C)(O)[C@H]3C[C@@H]12	92 µM (inactive)	0.228 µM (active)	23.6 µM (inactive)	0.518 µM (active)	43.7 µM (inactive)	49.8 µM (inactive)	0.679 µM (active)	66.1 µM (inactive)	1.73 µM (inactive)	35.3 µM (inactive)	2.37 µM (inactive)	25.9 µM (inactive)	33.5 µM (inactive)	0.641 µM (active)	0.139 µM (active)	1.9 µM (inactive)	0.471 µM (active)	5.37 µM (inactive)	0.346 µM (active)	0.358 µM (active)
C=C1CC2[C@H](C)C(=O)CCC2(C)C2=C1C1CCC(C(C)CCC(=C)C(C)C(=O)O)C1(C)CC2=O (stereo not given in full)	> 100 µM (inactive)	11.8 µM (inactive)	49.4 µM (inactive)	45.4 µM (inactive)	62.1 µM (inactive)	71.4 µM (inactive)	17.9 µM (inactive)	83.9 µM (inactive)	82 µM (inactive)	41.9 µM (inactive)	84.1 µM (inactive)	30.5 µM (inactive)	> 100 µM (inactive)	97.3 µM (inactive)	> 100 µM (inactive)	31.3 µM (inactive)	61.7 µM (inactive)	41.6 µM (inactive)	51.8 µM (inactive)	30.9 µM (inactive)
O=C1CSC(=S)N1/N=C/c1ccc(Cl)c([N+](=O)[O-])c1	61 µM (inactive)	7.35 µM (inactive)	43.7 µM (inactive)	30.6 µM (inactive)	39.6 µM (inactive)	34.2 µM (inactive)	22.2 µM (inactive)	13.3 µM (inactive)	36.4 µM (inactive)	17.9 µM (inactive)	22.6 µM (inactive)	20.1 µM (inactive)	> 100 µM (inactive)	32.8 µM (inactive)	29.8 µM (inactive)	53.6 µM (inactive)	33.7 µM (inactive)	23 µM (inactive)	25.9 µM (inactive)	27.6 µM (inactive)
COc1ccc(-c2cc(-c3ccccc3)nc3c2CC(=O)Nc2ccccc2-3)cc1OC	1.89 µM (inactive)	> 100 µM (inactive)	> 27.9 µM (inactive)	1.81 µM (inactive)	0.719 µM (active)	> 100 µM (inactive)	2 µM (inactive)	> 20 µM (inactive)	2.92 µM (inactive)	> 100 µM (inactive)	1.37 µM (inactive)	4.07 µM (inactive)	> 100 µM (inactive)	13.9 µM (inactive)	> 100 µM (inactive)	68.5 µM (inactive)	> 21.4 µM (inactive)	> 68.9 µM (inactive)	> 100 µM (inactive)	5.69 µM (inactive)
N#CC(c1ccccc1)N(CCc1ccccc1)C(=O)Oc1ccccc1 (stereo not given)	> 100 µM (inactive)	> 100 µM (inactive)	> 100 µM (inactive)	82 µM (inactive)	> 100 µM (inactive)	> 100 µM (inactive)	> 100 µM (inactive)	> 100 µM (inactive)	34.1 µM (inactive)	> 100 µM (inactive)	> 100 µM (inactive)	> 100 µM (inactive)	> 100 µM (inactive)	> 100 µM (inactive)	> 100 µM (inactive)	> 100 µM (inactive)	> 100 µM (inactive)	> 100 µM (inactive)	> 100 µM (inactive)	> 100 µM (inactive)
CCOC(=O)c1cn2c(n1)sc1cc(C)c(C)cc12	17.1 µM (inactive)	24.1 µM (inactive)	26.5 µM (inactive)	17.1 µM (inactive)	18 µM (inactive)	15 µM (inactive)	29.1 µM (inactive)	23.6 µM (inactive)	18.9 µM (inactive)	35.7 µM (inactive)	27.7 µM (inactive)	17.5 µM (inactive)	16.8 µM (inactive)	14.6 µM (inactive)	31.6 µM (inactive)	16.5 µM (inactive)	20.1 µM (inactive)	25.5 µM (inactive)	28.3 µM (inactive)	18.8 µM (inactive)
C#CCN(C(=O)C(F)(F)F)C(/C=C\C(=O)OC)(C(=O)OCC)C(=O)OCC	> 100 µM (inactive)	> 100 µM (inactive)	> 10 µM (inactive)	> 100 µM (inactive)	> 100 µM (inactive)	> 100 µM (inactive)	> 100 µM (inactive)	> 100 µM (inactive)	> 100 µM (inactive)	> 100 µM (inactive)	> 100 µM (inactive)	> 100 µM (inactive)	> 100 µM (inactive)	> 100 µM (inactive)	> 100 µM (inactive)	> 100 µM (inactive)	> 100 µM (inactive)	> 100 µM (inactive)	> 100 µM (inactive)	> 100 µM (inactive)
